Patent publication US20260355191A1, “PAN-RAS INHIBITOR COMPOUND” (ADLAI NORTYE BIOPHARMA CO., LTD., priority 2024, published 2026)

Legend:
[1] = system: AsPC-1; experiment: In vitro cell proliferation inhibition assay (CellTiter-Glo), AsPC-1; assay type: cell-based; settings: AsPC-1, KRAS (p.G12D), 72 h; read-out: IC50, antiproliferative activity
Description: (§1) Due to the diversity of RAS mutations, and in order to evaluate the activity of the compounds in different RAS mutant cell lines, we selected cell lines with KRAS^G12D, KRAS^G12V, KRAS^G12c, NRAS^q61L, KRAS^G13D, KRAS^G12R, and KRAS^WT mutations (see the table below for in vitro activity evaluation and screening of the compounds.
(§2) According to the doubling time of different cell lines, different numbers of cells (1000-5000 cells/well) were seeded into 96-well plates containing 180 μL of the corresponding culture medium, and incubated overnight in a cell incubator at 37 °C with 5% C02. On the following day, the test compounds were pre-diluted in the culture medium in a 3-fold serial dilution series, with the highest concentration being […], resulting in 10 concentration gradients in total. Subsequently, 20 μL of culture medium containing the compounds at different concentrations was added to the cells in the 96-well plates, ensuring a final compound concentration of up to 10 μM, with 10 concentrations in 3-fold dilution. After co-incubation of the cells with the compounds for 72 h, the 96-well plates were removed from the incubator and equilibrated at room temperature for 30 min. Then, 25 μL of CellTiter-Glo® Reagent was added to each well and mixed thoroughly, followed by incubation at room temperature for 10 min. Subsequently, 100 μL of the samples was transferred to white 96-well plates (OptiPlate™-96, PerkinElmer), and […] signal values were read using a multifunctional microplate reader (SpectraMax i3x, Molecular Devices). The signal values were then normalized, and curve fitting was performed using a four-parameter logistic regression equation to calculate the half maximal inhibitory concentration (IC50) of the compounds against the cell lines.

[2] = system: SW480; experiment: In vitro cell proliferation inhibition assay (CellTiter-Glo), SW480; assay type: cell-based; settings: SW480, KRAS (p.G12V), 72 h; read-out: IC50, antiproliferative activity
Description: as §1, §2

[3] = system: H358; experiment: In vitro cell proliferation inhibition assay (CellTiter-Glo), H358; assay type: cell-based; settings: H358, KRAS (p.G12C), 72 h; read-out: IC50, antiproliferative activity
Description: as §1, §2

[4] = system: HepG2; experiment: In vitro cell proliferation inhibition assay (CellTiter-Glo), HepG2; assay type: cell-based; settings: HepG2, NRAS (p.Q61L), 72 h; read-out: IC50, antiproliferative activity
Description: as §1, §2

[5] = system: HCT116; experiment: In vitro cell proliferation inhibition assay (CellTiter-Glo), HCT116; assay type: cell-based; settings: HCT116, KRAS (p.G13D), 72 h; read-out: IC50, antiproliferative activity
Description: as §1, §2

[6] = system: PSN1; experiment: In vitro cell proliferation inhibition assay (CellTiter-Glo), PSN1; assay type: cell-based; settings: PSN1, KRAS (p.G12R), 72 h; read-out: IC50, antiproliferative activity
Description: as §1, §2

[7] = system: MV411; experiment: In vitro cell proliferation inhibition assay (CellTiter-Glo), MV411; assay type: cell-based; settings: MV411, KRAS wild type, 72 h; read-out: IC50, antiproliferative activity
Description: as §2

[8] = target: T1, cyclophilin A (CypA) (Homo sapiens, UniProt P62937); experiment: Binary complex binding assay (BLI); settings: His-tagged CypA, pH 7.4, 1:1 binding model; for Kd: read-out: KD1 (binary complex equilibrium dissociation constant); for kon: read-out: ka (association rate constant); for koff: read-out: kdis (dissociation rate constant)
T1 construct: purchased R&D 3589-CAB
T1 sequence (P62937 whole entry): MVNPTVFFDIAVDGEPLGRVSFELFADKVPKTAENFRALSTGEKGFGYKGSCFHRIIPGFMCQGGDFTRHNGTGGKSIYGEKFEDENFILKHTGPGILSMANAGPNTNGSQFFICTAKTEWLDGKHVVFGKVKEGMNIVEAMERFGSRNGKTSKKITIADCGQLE
Description: To evaluate the binding ability of the test compounds to cyclophilin A (CypA), we employed a Bio-layer Interferometry (BLI) method (Octet R8) to monitor the binding kinetics between the compounds and CypA, and to calculate the affinity of the binary complex. His-tagged CypA protein (3589-CAB, R&D) was first immobilized on an NTA sensor, followed by baseline equilibration for 120 seconds in the assay buffer (20 mM HEPES, pH 7.4, 150 mM NaCl, 5 mM MgCl2, 1 mM TCEP, 0.01% Tween 20). The sensor was then exposed to buffer solutions containing different concentrations of the compounds to monitor the association process in real time. When the high-concentration compound binding reached a plateau, the sensor was transferred to compound-free buffer to measure the dissociation process. To ensure data accuracy, DMSO normalization was performed, non-specific binding was minimized by buffer optimization, and negative and positive controls were set to verify assay specificity. Data were processed using Octet Analysis Studio 13.0, analyzed using a 1:1 binding model, and the association rate constant (ka), dissociation rate constant (kdis), and equilibrium dissociation constant (KD1) were calculated.

[9] = target: ternary complex comprising RAS and CypA; KRAS^G12D (Homo sapiens, UniProt P01116+P62937, G12D); experiment: Ternary complex binding assay (BLI), KRAS G12D; settings: GMPPNP-loaded KRAS^G12D, fixed concentration of CypA, pH 7.4, read-out: KD2 (ternary complex equilibrium dissociation constant)
ternary complex comprising RAS and CypA; KRAS^G12D, sequence (P01116 1-188 isoform P01116-2 G12D): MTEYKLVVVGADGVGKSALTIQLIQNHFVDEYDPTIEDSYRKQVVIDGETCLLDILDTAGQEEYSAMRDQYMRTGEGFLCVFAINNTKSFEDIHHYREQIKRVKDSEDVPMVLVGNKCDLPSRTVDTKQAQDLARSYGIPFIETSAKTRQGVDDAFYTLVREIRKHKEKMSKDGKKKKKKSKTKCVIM
ternary complex comprising RAS and CypA; KRAS^G12D, sequence (P62937 whole entry): as the sequence (P62937 whole entry) above
Description: (§3) To evaluate the ability of the test compounds to induce the formation of a ternary complex comprising RAS and CypA, we employed a Bio-layer Interferometry (BLI) method (Octet R8) to monitor the binding kinetics among the compounds, RAS, and CypA, and to calculate the affinity of the ternary complex. GMPPNP was first incubated with RAS protein to load GMPPNP onto RAS. His-tagged RAS proteins with different mutations were then immobilized on NTA sensors, followed by baseline equilibration for 120 seconds in the assay buffer (20 mM HEPES, pH 7.4, 150 mM NaCl, 5 mM MgCl2, 1 mM TCEP, 5 μM GMPPNP, 0.01% Tween 20). The sensors were subsequently exposed to buffer containing various concentrations of the compounds and a fixed concentration of CypA, and the association phase of ternary complex formation was monitored in real time. Once binding reached a plateau, the sensors were transferred to compound- and CypA-free buffer to measure the dissociation phase. To ensure accuracy, DMSO normalization was performed, buffer composition was optimized to reduce non-specific binding, and both negative and positive controls were employed to verify assay specificity. Data were processed using Octet Analysis Studio 13.0, analyzed using a 1:1 binding model, and the association rate constant (ka), dissociation rate constant (kdis), and equilibrium dissociation constant (KD2) were calculated.

[10] = target: ternary complex comprising RAS and CypA; KRAS^G12V (Homo sapiens, UniProt P01116+P62937, G12V); experiment: Ternary complex binding assay (BLI), KRAS G12V; settings: GMPPNP-loaded KRAS^G12V, fixed concentration of CypA, pH 7.4, read-out: KD2 (ternary complex equilibrium dissociation constant)
ternary complex comprising RAS and CypA; KRAS^G12V, sequence (P01116 1-188 isoform P01116-2 G12V): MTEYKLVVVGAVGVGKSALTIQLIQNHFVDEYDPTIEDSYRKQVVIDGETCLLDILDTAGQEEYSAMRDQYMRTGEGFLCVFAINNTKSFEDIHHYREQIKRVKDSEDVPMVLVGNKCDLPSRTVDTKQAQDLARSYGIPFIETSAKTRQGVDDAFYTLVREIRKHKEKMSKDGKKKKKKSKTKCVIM
ternary complex comprising RAS and CypA; KRAS^G12V, sequence (P62937 whole entry): as the sequence (P62937 whole entry) above
Description: as §3

[11] = target: ternary complex comprising RAS and CypA; KRAS^WT (Homo sapiens, UniProt P01116+P62937); experiment: Ternary complex binding assay (BLI), KRAS WT; settings: GMPPNP-loaded KRAS^WT, fixed concentration of CypA, pH 7.4, read-out: KD2 (ternary complex equilibrium dissociation constant)
ternary complex comprising RAS and CypA; KRAS^WT, sequence (P01116 1-188 isoform P01116-2): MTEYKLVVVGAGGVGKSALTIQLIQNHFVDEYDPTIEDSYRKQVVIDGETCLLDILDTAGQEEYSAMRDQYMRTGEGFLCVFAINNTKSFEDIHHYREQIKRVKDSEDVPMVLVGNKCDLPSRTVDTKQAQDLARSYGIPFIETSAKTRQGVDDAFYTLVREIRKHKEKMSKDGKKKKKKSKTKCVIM
ternary complex comprising RAS and CypA; KRAS^WT, sequence (P62937 whole entry): as the sequence (P62937 whole entry) above
Description: as §3

[12] = Pharmacokinetic study in mice; assay type: in vivo; settings: mouse, male CD-1 mice; for bioavailability: blood; for bioavailability / AUC / Cmax: po; for Vd / clearance: iv; for Vd / clearance / AUC / Cmax: whole blood
Description: To evaluate the pharmacokinetic behavior of the compounds of the disclosure in male CD-1 mice, the test compounds were dissolved in a solvent (5% DMSO/10% solutol/85% water). Twelve male CD-1 mice were divided into two groups, with six animals in each group. Group 1 received a single intravenous bolus (i.v.) administration of the compound, and Group 2 received a single oral (p.o.) administration of the compound. Whole blood samples were collected at 0.083 h (intravenous group only), 0.25, 0.5, 1, 2, 4, 8, and 24 hours after dosing. The concentration of the test compound in whole blood samples was determined using the LC-MS/MS method.

IC50 [1] [nM]	IC50 [2] [nM]	IC50 [3] [nM]	IC50 [4] [nM]	IC50 [5] [nM]	IC50 [7] [nM]	Kd [8] [nM]	kon [8] [M⁻¹ s⁻¹]	koff [8] [s⁻¹]	Kd [9] [nM]	Kd [10] [nM]	Kd [11] [nM]	Structure (SMILES)	IC50 [6] [nM]	other results
0.01	0.01	0.01	0.02	0.03	0.07	2	330000	0.00066	8.8	8.3	10	CO[C@@H](C)c1ncc(-c2nnc(C3CCN(C4COC4)CC3)o2)cc1-c1c2c3cc(ccc3n1CC(F)(F)F)-c1csc(n1)C[C@H](NC(=O)C1[C@@H](C)[C@H]1C)C(=O)N1N[C@H](C(=O)OCC(C)(C)C2)C2CC1C2 (stereo partly drawn) [Compound 8]	0.01	bioavailability ([12]; i.v. 0.25 mpk, p.o. 0.5 mpk): 54.6%; Vd ([12]; i.v. 0.25 mpk): 1.84 L/kg; clearance ([12]; i.v. 0.25 mpk): 1.8 mL/min/kg; AUC ([12]; 0.5 mg/kg, p.o. 0.5 mpk): 2590 ng·h/mL; Cmax ([12]; 0.5 mg/kg, p.o. 0.5 mpk): 96 ng/mL
0.02	0.03	0.007	0.04	0.44	0.12	3	130000	0.0004	24	26	16	CO[C@@H](C)c1ncc(-c2nnc(C3CCN(C4COC4)CC3)o2)cc1-c1c2c3cc(ccc3n1CC(F)(F)F)-c1csc(n1)C[C@H](NC(=O)[C@H]1[C@H](C)[C@@H]1C)C(=O)N1CCC[C@H](N1)C(=O)OCC(C)(C)C2 (atropisomer, axis not shown) [Compound 6, (1r,2R,3S)—N-((6^3S,4S,Z)-1^2-(2-((S)-1-methoxyethyl)-5-(5-(1-(oxetan-3-yl)piperidin-4-yl)-1,3,4-oxadiazol-2-yl)pyridin-3-yl)-10,10-dimethyl-5,7-dioxo-1^1-(2,2,2-trifluoroethyl)-6^1,6^2,6^3,6^4,6^5,6^6-hexahydro-1^1H-8-oxa-2(4,2)-thiazola-1(5,3)-indola-6(1,3)-pyridazinacycloundecaphane-4-yl)-2,3-dimethylcyclopropane-1-carboxamide]	0.04	bioavailability ([12]; i.v. 1 mpk, p.o. 2 mpk): 43.1%; Vd ([12]; 1 mg/kg, i.v. 1 mpk): 1.14 L/kg; clearance ([12]; 1 mg/kg, i.v. 1 mpk): 2.6 mL/min/kg; AUC ([12]; 2 mg/kg, p.o. 2 mpk): 5630 ng·h/mL; Cmax ([12]; 2 mg/kg, p.o. 2 mpk): 439 ng/mL
